The source made the active and inactive calls.
Columns and labels:
[1] = biological target: Prothrombin (Homo sapiens, UniProt P00734); experiment: Thrombin 1536 HTS Dose Response Confirmation. [Related pubchem assays: 1046 (Thrombin 1536 HTS; hits were confirmed in this assay)]; format: functional
[2] = biological target: Cytochrome P450 3A4 (Homo sapiens, UniProt P08684);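 further: CYP3A4 tested as one member of a cytochrome P450 panel screen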
[3] = Luminescence Cell-Based Dose Retest to Confirm Inhibitors of Cancer Stem Cells. [Related pubchem assays (depositor defined):AID2717, AID2721]; format: functional; details: Homo sapiens
[4] = viability of uninfected HEp-2 cells – cell-based, HTS, cytotoxicity control for RSV inhibitor project, dose response (AID 2410); format: functional; details: human respiratory syncytial virus
[5] = cells
[6] = Luminescence Cell-Based Dose Confirmation HTS to Identify Activators of 5'UTR Stem-Loop Driven Alpha-Synuclein mRNA Translation in H4 Neuroglioblastoma Cells. [Related pubchem assays: 1829 (Project Summary), 1814 (Primary HTS)]; format: functional
[7] = Luminescence Cell-Based Dose Response HTS to Identify Activators of Luciferase Translation or Activity in H4 […] Cells. [Related pubchem assays: 1829 (Project Summary), 1814 (Primary HTS)]; format: functional
[8] = system: H4; experiment: Luminescence Cell-Based Dose Response HTS to Identify Activators of 5'UTR Stem-Loop Driven Prion Protein mRNA Translation in H4 Neuroglioblastoma Cells. [Related pubchem assays: 1829 (Project Summary), 1814 (Primary HTS)]; format: functional; details: Homo sapiens
[9] = M. tuberculosis H37Rv growth inhibitors, H37Rv strain (AID 1626); format: functional
[10] = biological target: Mitogen-activated protein kinase 10 (Homo sapiens, UniProt P53779); experiment: Dose response biochemical screening assay for inhibitors of c-Jun N-Terminal Kinase 3 (JNK3). [Related pubchem assays: 746 ]
Mitogen-activated protein kinase 10, sequence (P53779 whole entry): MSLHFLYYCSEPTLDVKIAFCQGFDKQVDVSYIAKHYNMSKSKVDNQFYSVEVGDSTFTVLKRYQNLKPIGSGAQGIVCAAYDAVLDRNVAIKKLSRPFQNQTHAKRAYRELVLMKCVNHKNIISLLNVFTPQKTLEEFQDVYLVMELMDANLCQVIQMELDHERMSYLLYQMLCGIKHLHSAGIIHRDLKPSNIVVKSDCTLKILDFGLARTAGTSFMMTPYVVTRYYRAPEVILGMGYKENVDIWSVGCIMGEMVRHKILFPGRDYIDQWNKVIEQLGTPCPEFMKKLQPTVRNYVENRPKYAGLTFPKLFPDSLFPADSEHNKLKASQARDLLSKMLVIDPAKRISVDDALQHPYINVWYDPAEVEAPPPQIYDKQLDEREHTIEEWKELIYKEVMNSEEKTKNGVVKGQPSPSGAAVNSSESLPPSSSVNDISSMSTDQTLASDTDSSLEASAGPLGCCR

[11] = biological target: T1, Sentrin-specific protease 8 (Homo sapiens, UniProt Q96LD8); format: functional;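 further: luminescence read-out of SENP8 inhibition, dose-response confirmation following an ultra-high-throughput screen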
T1 sequence (Q96LD8 whole entry): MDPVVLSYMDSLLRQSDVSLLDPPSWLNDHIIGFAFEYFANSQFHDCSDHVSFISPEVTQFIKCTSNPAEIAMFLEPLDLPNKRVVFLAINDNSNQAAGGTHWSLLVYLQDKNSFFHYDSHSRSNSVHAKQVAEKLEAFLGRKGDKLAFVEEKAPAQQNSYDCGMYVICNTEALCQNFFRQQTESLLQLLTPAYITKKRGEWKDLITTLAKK

[12] = Luminescence Cell-Based Dose Response to Identify Activators of 5'UTR Stem-Loop Driven Prion Protein mRNA Translation in H4-C Neuroglioblastoma Cells. [Related pubchem assays: 1829 (Project Summary), 1814 (Primary HTS)]; format: functional
[13] = Luminescence Cell-Based Dose Response to Identify Activators of Luciferase Translation or Activity in H4-C Neuroglioblastoma Cells. [Related pubchem assays: 1829 (Project Summary), 1814 (Primary HTS)]; format: functional
[14] = biological target: T2, Sentrin-specific protease 7 (Homo sapiens, UniProt Q9BQF6); format: functional;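 further: Luminescence-based dose-response confirmation of ultra-high-throughput screening hits, measuring inhibition of SENP7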
T2 sequence (Q9BQF6 whole entry): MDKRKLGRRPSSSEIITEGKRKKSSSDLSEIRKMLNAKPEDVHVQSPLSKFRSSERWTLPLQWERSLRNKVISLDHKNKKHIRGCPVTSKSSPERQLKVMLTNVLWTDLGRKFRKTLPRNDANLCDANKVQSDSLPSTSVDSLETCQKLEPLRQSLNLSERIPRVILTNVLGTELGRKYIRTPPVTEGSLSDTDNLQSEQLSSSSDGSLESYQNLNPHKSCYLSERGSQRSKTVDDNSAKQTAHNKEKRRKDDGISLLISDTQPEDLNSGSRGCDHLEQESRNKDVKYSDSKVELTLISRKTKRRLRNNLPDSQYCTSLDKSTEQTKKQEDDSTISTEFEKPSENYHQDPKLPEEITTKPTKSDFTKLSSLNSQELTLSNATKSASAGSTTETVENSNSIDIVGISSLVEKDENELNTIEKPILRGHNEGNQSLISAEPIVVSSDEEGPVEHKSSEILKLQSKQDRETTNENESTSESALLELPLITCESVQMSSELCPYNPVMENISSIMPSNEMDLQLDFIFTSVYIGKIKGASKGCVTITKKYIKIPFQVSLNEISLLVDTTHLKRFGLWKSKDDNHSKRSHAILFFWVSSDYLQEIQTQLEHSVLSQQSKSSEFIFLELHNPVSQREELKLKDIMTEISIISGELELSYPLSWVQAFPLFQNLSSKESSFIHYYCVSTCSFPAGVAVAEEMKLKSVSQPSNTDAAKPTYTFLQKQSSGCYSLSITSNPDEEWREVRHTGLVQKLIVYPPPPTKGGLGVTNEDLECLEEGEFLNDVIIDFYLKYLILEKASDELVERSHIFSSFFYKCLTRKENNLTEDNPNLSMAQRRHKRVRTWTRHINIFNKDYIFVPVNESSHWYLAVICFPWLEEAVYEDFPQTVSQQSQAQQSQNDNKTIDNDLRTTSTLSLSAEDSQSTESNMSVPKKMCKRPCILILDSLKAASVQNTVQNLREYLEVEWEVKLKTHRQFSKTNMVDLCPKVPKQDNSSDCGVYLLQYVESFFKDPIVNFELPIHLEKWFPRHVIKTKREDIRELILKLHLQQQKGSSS

[15] = biological target: T3, Caspase-3 (Homo sapiens, UniProt P42574); format: functional;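 further: Dose-response selectivity test against caspase-3 for candidate inhibitors of sentrin-specific proteases (SENPs)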
T3 sequence (P42574 whole entry): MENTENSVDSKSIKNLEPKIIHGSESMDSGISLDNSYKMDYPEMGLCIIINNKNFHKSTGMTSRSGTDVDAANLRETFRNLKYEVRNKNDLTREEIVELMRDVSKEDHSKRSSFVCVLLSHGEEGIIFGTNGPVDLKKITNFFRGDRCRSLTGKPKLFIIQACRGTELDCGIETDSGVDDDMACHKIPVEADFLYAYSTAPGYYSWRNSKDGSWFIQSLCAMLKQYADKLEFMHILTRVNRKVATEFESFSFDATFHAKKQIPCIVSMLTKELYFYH

[16] = Luminescence Cell-Based Dose Confirmation to Identify Activators of 5'UTR Stem-Loop Driven Alpha-Synuclein mRNA Translation in H4 Neuroglioblastoma Cells. [Related pubchem assays: 1829 (Project Summary), 1814 (Primary HTS)]; format: functional
[17] = biological target: T4, Sentrin-specific protease 6 (Homo sapiens, UniProt Q9GZR1); format: functional;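 further: Luminescence-based dose-response confirmatory assay of SENP6 inhibition, following up an ultra-high-throughput screen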
T4 sequence (Q9GZR1 whole entry): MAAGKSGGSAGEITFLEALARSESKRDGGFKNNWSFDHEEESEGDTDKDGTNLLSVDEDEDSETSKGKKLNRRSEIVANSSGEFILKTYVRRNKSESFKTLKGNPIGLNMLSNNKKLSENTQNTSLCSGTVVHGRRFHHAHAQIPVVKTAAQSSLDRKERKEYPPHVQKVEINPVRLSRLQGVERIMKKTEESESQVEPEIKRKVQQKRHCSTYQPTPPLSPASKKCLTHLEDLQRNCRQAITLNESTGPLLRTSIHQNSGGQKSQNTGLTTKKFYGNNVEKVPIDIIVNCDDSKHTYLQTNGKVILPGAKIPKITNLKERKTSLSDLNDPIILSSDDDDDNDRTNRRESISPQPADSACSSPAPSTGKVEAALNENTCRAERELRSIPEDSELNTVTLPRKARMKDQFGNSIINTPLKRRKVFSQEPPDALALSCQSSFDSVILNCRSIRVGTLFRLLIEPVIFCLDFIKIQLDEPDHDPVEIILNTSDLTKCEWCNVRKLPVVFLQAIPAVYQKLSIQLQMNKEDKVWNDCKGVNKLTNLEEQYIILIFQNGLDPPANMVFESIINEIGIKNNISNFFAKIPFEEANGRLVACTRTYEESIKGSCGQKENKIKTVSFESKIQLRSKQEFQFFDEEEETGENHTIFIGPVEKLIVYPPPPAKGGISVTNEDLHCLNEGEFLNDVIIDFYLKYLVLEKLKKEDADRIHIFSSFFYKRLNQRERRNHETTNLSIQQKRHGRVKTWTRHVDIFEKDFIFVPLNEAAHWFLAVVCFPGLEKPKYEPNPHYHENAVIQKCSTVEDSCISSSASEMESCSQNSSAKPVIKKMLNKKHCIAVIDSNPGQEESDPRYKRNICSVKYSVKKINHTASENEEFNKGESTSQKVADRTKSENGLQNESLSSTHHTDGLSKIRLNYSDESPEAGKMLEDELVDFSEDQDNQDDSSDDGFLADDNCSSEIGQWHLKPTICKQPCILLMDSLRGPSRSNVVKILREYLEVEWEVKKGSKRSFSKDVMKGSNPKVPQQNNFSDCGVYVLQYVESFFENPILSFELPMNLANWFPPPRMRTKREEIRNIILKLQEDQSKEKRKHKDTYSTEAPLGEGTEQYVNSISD

[18] = biological target: T5, Fatty acid synthase (Homo sapiens, UniProt P49327); experiment: inhibition of human FAS-TE enzyme activity – biochemical, endpoint fluorescence intensity, uHTS hits, dose response (AID 624327); format: functional;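 further: fluorescence from hydrolysis of an O-methyl fluorescein acyl ester substrate by the enzyme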
T5 sequence (P49327 whole entry): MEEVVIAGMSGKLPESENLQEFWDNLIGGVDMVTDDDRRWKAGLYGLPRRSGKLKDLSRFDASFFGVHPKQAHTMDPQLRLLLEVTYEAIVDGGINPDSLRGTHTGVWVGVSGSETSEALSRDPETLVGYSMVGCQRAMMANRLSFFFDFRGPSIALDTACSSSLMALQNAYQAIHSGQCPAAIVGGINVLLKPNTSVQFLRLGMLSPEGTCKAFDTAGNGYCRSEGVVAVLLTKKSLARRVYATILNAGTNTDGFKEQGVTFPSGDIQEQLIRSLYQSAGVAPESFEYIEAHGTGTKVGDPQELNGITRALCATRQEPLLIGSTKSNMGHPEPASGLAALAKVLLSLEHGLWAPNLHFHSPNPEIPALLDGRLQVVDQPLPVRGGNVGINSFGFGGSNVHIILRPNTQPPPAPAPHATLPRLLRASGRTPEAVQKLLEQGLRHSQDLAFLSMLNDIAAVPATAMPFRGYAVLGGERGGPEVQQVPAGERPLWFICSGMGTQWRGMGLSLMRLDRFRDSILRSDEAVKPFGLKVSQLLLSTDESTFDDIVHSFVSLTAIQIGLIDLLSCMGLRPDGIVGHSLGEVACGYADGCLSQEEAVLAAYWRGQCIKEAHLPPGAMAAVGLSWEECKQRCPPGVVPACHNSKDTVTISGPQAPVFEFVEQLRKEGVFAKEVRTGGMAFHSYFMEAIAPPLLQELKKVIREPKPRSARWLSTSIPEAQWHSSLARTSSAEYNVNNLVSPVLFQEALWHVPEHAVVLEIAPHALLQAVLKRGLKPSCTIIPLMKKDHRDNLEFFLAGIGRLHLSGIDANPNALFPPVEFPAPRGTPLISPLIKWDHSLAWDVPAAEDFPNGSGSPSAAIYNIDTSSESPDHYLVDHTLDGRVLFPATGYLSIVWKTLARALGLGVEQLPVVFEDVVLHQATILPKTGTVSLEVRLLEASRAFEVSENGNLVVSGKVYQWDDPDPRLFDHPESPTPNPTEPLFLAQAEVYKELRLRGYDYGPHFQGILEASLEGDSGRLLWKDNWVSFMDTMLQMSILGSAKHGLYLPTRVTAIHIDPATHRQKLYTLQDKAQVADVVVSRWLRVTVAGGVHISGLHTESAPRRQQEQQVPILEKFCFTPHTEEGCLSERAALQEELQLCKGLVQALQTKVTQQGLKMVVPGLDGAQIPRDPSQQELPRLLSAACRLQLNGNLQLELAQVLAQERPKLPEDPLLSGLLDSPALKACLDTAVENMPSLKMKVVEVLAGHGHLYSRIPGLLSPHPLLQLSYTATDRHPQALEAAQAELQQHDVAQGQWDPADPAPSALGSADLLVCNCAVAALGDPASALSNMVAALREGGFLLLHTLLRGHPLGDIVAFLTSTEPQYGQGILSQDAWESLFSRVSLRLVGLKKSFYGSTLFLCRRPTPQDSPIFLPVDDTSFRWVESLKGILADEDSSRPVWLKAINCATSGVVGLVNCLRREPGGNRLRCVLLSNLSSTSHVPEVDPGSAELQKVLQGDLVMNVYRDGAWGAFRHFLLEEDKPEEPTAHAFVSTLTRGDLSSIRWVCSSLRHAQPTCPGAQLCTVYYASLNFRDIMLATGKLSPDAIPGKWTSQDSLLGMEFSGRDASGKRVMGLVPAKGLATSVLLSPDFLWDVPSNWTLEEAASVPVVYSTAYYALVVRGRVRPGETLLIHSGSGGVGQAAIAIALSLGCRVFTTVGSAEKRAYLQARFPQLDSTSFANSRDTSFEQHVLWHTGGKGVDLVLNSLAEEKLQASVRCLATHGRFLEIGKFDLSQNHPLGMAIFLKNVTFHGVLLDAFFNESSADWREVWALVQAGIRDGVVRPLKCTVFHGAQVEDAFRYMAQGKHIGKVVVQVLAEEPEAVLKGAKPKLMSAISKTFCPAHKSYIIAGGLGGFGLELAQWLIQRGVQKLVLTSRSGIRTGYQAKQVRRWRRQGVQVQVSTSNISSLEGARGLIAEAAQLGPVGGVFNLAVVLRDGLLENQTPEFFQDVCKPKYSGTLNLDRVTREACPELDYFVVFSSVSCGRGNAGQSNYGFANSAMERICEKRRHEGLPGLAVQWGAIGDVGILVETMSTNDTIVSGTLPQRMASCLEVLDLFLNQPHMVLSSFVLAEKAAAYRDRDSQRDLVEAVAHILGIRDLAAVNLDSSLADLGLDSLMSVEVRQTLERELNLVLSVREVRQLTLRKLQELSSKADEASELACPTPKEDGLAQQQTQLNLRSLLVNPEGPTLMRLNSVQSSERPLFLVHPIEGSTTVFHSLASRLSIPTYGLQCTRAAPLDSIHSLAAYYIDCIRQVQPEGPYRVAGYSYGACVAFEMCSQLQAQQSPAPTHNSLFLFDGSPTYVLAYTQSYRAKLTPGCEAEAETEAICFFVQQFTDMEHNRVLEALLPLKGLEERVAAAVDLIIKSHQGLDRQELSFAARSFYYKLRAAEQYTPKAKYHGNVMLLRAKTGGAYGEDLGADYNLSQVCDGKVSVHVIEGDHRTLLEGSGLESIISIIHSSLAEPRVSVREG

[19] = biological target: T5, Fatty acid synthase; experiment: inhibition of human FAS-TE enzyme activity – biochemical, kinetic fluorescence intensity, dose response (AID 624326); format: functional;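 further: rate of fluorescence rise from hydrolysis of a fluorogenic O-methyl fluorescein ester substrate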
[20] = biological target: T6, Aminopeptidase N (Plasmodium falciparum FcB1/Columbia, UniProt O96935); experiment: malaria alanyl aminopeptidase activity blockers – biochemical, fluorogenic H-Leu-NHMec substrate, 1536-well (AID 1445); design: species or system Plasmodium falciparum 3D7, 3D7
T6 sequence (O96935 whole entry): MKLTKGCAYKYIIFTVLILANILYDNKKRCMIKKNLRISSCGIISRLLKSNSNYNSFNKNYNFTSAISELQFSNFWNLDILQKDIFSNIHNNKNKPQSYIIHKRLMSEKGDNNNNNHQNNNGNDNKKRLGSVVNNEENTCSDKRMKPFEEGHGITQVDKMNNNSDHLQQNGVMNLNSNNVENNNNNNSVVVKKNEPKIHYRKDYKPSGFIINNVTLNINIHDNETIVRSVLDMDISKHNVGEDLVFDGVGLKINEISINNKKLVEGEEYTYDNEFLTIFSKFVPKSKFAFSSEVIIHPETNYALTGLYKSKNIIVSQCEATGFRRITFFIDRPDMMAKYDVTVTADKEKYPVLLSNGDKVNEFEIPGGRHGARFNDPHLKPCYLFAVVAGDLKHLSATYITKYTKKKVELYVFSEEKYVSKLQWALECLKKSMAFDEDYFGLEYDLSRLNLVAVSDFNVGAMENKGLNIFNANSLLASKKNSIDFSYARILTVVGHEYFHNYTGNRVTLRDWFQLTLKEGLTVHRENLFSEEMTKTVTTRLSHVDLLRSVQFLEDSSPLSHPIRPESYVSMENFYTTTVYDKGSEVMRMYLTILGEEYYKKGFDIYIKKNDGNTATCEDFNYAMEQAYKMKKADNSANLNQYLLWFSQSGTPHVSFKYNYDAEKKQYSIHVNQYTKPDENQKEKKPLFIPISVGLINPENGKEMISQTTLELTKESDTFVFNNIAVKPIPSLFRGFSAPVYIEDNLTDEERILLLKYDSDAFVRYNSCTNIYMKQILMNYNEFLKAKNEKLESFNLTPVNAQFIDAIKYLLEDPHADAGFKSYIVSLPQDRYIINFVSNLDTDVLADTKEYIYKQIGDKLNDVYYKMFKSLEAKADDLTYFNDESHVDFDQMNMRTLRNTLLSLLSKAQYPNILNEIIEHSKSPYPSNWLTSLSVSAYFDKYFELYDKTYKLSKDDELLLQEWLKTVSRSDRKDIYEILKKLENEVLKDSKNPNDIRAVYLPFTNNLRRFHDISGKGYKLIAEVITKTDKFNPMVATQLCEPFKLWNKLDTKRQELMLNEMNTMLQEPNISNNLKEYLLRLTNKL

Cytochrome P450 3A4, sequence (P08684 whole entry): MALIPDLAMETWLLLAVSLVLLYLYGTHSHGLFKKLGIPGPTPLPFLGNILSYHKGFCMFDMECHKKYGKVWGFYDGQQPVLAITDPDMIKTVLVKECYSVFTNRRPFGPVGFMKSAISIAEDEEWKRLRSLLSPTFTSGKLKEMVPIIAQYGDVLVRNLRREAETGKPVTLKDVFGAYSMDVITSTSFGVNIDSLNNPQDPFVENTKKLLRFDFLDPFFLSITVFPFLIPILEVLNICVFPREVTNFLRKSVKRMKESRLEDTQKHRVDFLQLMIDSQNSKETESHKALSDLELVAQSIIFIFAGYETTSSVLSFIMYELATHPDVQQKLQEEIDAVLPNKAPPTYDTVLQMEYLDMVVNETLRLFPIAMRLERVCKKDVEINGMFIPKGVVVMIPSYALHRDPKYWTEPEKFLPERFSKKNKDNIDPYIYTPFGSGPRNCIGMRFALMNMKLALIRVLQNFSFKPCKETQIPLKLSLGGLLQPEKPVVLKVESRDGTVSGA

## COC(=O)CSc1nnc(-c2ccccc2OC)n1-c1ccc(C)cc1
[1]
  IC50: > 50 µM (not active)
[2]
  AC50: 15.8 µM (inconclusive)

## COCCNc1cc(-c2ccccc2)nc2cc(-c3cccc(F)c3)nn12
[3]
  AC50: 6.74 µM (active)
[4]
  CC50: 35.1 µM (active)
[5]
  IC50: 41.8 µM (active)

## COc1ccc(NC(=O)n2nc(OC(=O)c3cccs3)cc2N)cc1
[1]
  IC50: 12.7 µM (active)
[6]
  EC50: > 60 µM (not active)
[7]
  EC50: 12.1 µM (active)
[8]
  EC50: 28.1 µM (active)

## CC(C(=O)N=Nc1c(O)[nH]c2ccccc12)n1cnc2ccccc2c1=O (stereo unspecified)
[5]
  IC50: > 50 µM (active)

## CCN(Cc1nc(O)c2ccccc2n1)C(=O)c1cc(C2CC2)nn1-c1ccccc1
[5]
  IC50: 8.79 µM (active)

## Nc1nc(COc2ccc(Cl)cc2)cs1
[9]
  IC50: > 100 µM (active)

## CCCc1nc2sc3ccccc3c(=O)c2c(=O)n1Cc1ccc(OC)cc1
[9]
  IC50: > 100 µM (active)

## COc1ccc(OC)c(C(=O)c2coc3ccc(O)cc23)c1
[10]
  IC50: > 93.1 µM (not active)

## Cc1ccc(OCc2nc(-c3ccccc3)no2)c(C)c1
[11]
  IC50: 62 µM (active)
[12]
  EC50: 1.03 µM (active)
[13]
  EC50: > 12 µM (not active)
[14]
  IC50: 7.65 µM (active)
[7]
  EC50: < 0.1 µM (active)
[15]
  IC50: 28.9 µM (active)
[16]
  EC50: 8.27 µM (active)
[17]
  IC50: 11.8 µM (active)

## COC(=O)c1n[nH]c(NC(=O)c2ccccc2Br)n1
[1]
  IC50: 0.082 µM (active)

## Cc1cccn2c(=O)c(/C=C(\C#N)C(=O)NCc3ccco3)c(N3CCCCCC3)nc12
[18]
  IC50: 21.9 µM (inactive)
[4]
  CC50: 22 µM (active)
[5]
  IC50: 22.5 µM (active)
[19]
  IC50: 9.53 µM (active)

## Clc1ccc(/C=N/Nc2nnn[nH]2)cc1
[20]
  IC50: 92.8 µM (active)

## Nc1nnc(CC(=O)N/N=C/c2cccc(OCCOc3ccccc3)c2)s1
[12]
  EC50: 1.25 µM (active)
[13]
  EC50: 0.88 µM (active)
[7]
  EC50: < 0.1 µM (active)
[16]
  EC50: 0.38 µM (active)
[8]
  EC50: 21.8 µM (active)

## CCOc1nn(-c2ccccc2)c(O)c1/C=N/c1ccc(OC)cc1
[9]
  IC50: > 100 µM (active)

## COc1nc(N=C(N)N)nc2c(C)cccc12
[20]
  IC50: 22.2 µM (active)

## CCOC(=O)c1ccc(NC(=O)N2CCN(Cc3ccccc3)CC2)cc1
[9]
  IC50: > 100 µM (active)

Source: ChEMBL document CHEMBL1201862, “PubChem BioAssay data set” (2004)
